Assay results published in paper PMC12692291, “Development and In Vitro Evaluation of [^64Cu]Cu-NOTA-TP-PSMA, a Novel Radiotheranostic Agent Against Prostate Cancer” (International Journal of Molecular Sciences, 2025).

System: LNCaP cells
Experiment: Cellular uptake and internalization in LNCaP cells
Type: cell-based
Procedure: LNCaP cells (1 × 10^5 cells/well) were seeded into 24-well plates and incubated for 72 h. Cells were treated with 1nM [^64Cu]Cu-NOTA-TP-PSMA or control monomers ([^64Cu]Cu-NOTA-TP and [^64Cu]Cu-NOTA-PSMA), each containing 0.1 MBq of radioactivity in RPMI-1640 medium.
Uptake and internalization were assessed at multiple time points (30 min to 24 h). At each timepoint, cells were washed with cold PBS, detached with trypsin, and counted using a hemocytometer. For internalization studies, surface-bound radioactivity was removed using 50 mM glycine-HCl buffer (pH 2.2) for 5 min, followed by additional PBS washes.
To investigate the internalization mechanism, parallel experiments were conducted at 4 °C to evaluate passive versus active uptake. Receptor specificity was assessed via blocking assays using 1 µM ^natCu-NOTA-TP-PSMA (1000-fold excess) co-incubated with 1 nM radiolabeled tracer. Post-incubation, intracellular radioactivity was quantified using a HIDEX gamma counter. All results were normalized to 10^6 cells and expressed as percent counts per minute per million cells (%CPM/10^6 cells).

Q: Which results are given for `O=C(O)CC[C@H](NC(=O)N[C@@H](CCCCNC(=O)[C@@H](Cc1ccc2ccccc2c1)NC(=O)C1CCC(CNC(=O)C(CCCCNC(=O)c2cc3[n+]4c(c2)-c2cccc[n+]2[Pt-2]4([Cl])[n+]2ccccc2-3)NC(=O)COCCOCCNC(=O)CN2CCN3CCN(CC2)CC(=O)[O][64Cu][O]C(=O)C3)CC1)C(=O)O)C(=O)O` (stereo partly shown) [[^64Cu]Cu-NOTA-TP-PSMA 1]?
A: internalization fold greater in LNCaP than HEK-293 (24 h): approximately 6 fold; uptake fold greater in LNCaP than HEK-293 (24 h): approximately 8 fold; fold decrease of internalization/uptake at 4 °C versus 37 °C (LNCaP): ~ 10 fold; Internalization at 4 °C (LNCaP, 4 °C, 24 h): 3.9 ± 0.5 %CPM/10^6 cells; Internalization (LNCaP, 24 h, 37 °C, 1 nM): 44.9 ± 7.3 %CPM/10^6 cells; Uptake (LNCaP, 24 h, 37 °C, 1 nM): 65.9 ± 8.6 %CPM/10^6 cells; fold decrease of internalization/uptake at 4 °C versus 37 °C (LNCaP, listed as [^64Cu]Cu-NOTA-TP-PSMA): > 10 fold; Uptake (Table S1, LNCaP, 1 h): 16.52 ± 5.38 %ID/10⁶ cells; Uptake blockage (Table S1, LNCaP, 1 h, 1 µM natCu-NOTA-TP-PSMA (1000-fold excess)): 11.06 ± 5.93 %ID/10⁶ cells; Uptake blockage (Table S1, LNCaP, 2 h, 1000-fold excess blocking): 16.36 ± 7.23 %ID/10⁶ cells; Uptake (Table S1, LNCaP, 4 h): 44.61 ± 16.49 %ID/10⁶ cells; Uptake blockage (Table S1, LNCaP, 4 h, 1000-fold excess blocking): 18.70 ± 10.46 %ID/10⁶ cells; Uptake (Table S1, LNCaP, 20 h): 62.88 ± 9.10 %ID/10⁶ cells; Uptake blockage (Table S1, LNCaP, 20 h, 1000-fold excess blocking): 30.68 ± 11.43 %ID/10⁶ cells; Uptake (Table S1, LNCaP, 24 h): 65.87 ± 8.37 %ID/10⁶ cells; Uptake blockage (Table S1, LNCaP, 24 h, 1000-fold excess blocking): 37.00 ± 13.09 %ID/10⁶ cells; Internalization LNCaP (Table S2, 1 h): 11.91 ± 5.75 %ID/10⁶ cells; Uptake LNCaP (Table S2, 1 h): 16.52 ± 5.53 %ID/10⁶ cells; Internalization LNCaP (Table S2, 2 h): 17.07 ± 6.19 %ID/10⁶ cells; Uptake LNCaP (Table S2, 2 h): 28.67 ± 9.74 %ID/10⁶ cells; Internalization LNCaP (Table S2, 4 h): 30.27 ± 8.92 %ID/10⁶ cells; Uptake LNCaP (Table S2, 4 h): 44.61 ± 16.99 %ID/10⁶ cells; Internalization LNCaP (Table S2, 20 h): 42.49 ± 9.41 %ID/10⁶ cells; Uptake LNCaP (Table S2, 20 h): 62.88 ± 9.37 %ID/10⁶ cells; Internalization LNCaP (Table S2, 24 h): 44.94 ± 7.32 %ID/10⁶ cells; Uptake LNCaP (Table S2, 24 h): 65.87 ± 8.61 %ID/10⁶ cells; fold higher internalization compared to [64Cu]Cu-NOTA-PSMA (cancer cells (LNCaP), 24 h): 2.7 fold; fold higher internalization compared to [64Cu]Cu-NOTA-TP (cancer cells (LNCaP), 24 h): 1.2 fold
